Data set [1] deals with RSV (RSV A2 ECACC, 0709161v). Nature of the data set: RSV plaque reduction assay. Type of data set: cell-based, respiratory syncytial virus. As to conditions: human respiratory syncytial virus, HepG2, read-out: RSV A2 Plaque EC50, RSV A2 in Hep-G2 cells; mean of at least two experiments unless noted (n = 1). In outline: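 Eight-point compound dilutions were premixed with RSV A2 (100 PFU/well) and applied to confluent Hep-G2 cells for 2 h, followed by a 2-day incubation at 37° C. under compound-containing 0.8% CMC overlay. EC50 comes from immunostained plaque counts relative to untreated virus wells, averaged over ≥2 runs.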
A general note: Plaque reduction counts the foci of infection that form in a cell layer.

A short description of another data set: cell toxicity CC50. Format: cell-based. The note with it: human; Hep-G2 cells; mean of at least two experiments; read-out: Cell Cytotoxicity CC50.

SMILES strings stand for the structures. Bounds are passed on as bounds.

On to `CN1CCN(CC2COc3c(C(=O)N[C@H]4N=C(c5ccccc5)c5cccc(F)c5NC4=O)c(-c4ccccc4F)nn3C2)CC1` (stereo partly drawn) [Example 172, N-[(3S)-9-fluoro-2-oxo-5-phenyl-1,3-dihydro-1,4-benzodiazepin-3-yl]-2-(2-fluorophenyl)-6-[(4-methylpiperazin-1-yl)methyl]-6,7-dihydro-5H-pyrazolo[5,1-b][1,3]oxazine-3-carboxamide], for which, in data set [1], the EC50 (commonly the midpoint of the concentration-response curve) came to 235 nM. Besides, the cytotoxic concentration (CC50) (as a rule, the concentration at which the toxic effect on the cells reaches its halfway point) in “cell toxicity CC50” was over 19900 nM.

Regarding `Cc1ccccc1-c1nn2c(c1C(=O)N[C@H]1N=C(c3ccccc3)c3cccc(F)c3NC1=O)OCCC2` [Example 6, N-[(3S)-9-Fluoro-2-oxo-5-phenyl-1,3-dihydro-1,4-benzodiazepin-3-yl]-2-(2-methylphenyl)-6,7-dihydro-5H-pyrazolo[5,1-b][1,3]oxazine-3-carboxamide], in data set [1], the EC50 turned out to be 165 nM. Further, the CC50 in “cell toxicity CC50” was over 25000 nM.

On to `CC(C)Nc1ccc(-c2nn3c(c2C(=O)N[C@H]2N=C(c4ccccc4)c4cccc(F)c4NC2=O)O[C@@H](C)CC3)c(F)n1` [Example 31, (5S)-N-[(3S)-9-fluoro-2-oxo-5-phenyl-1,3-dihydro-1,4-benzodiazepin-3-yl]-2-[2-fluoro-6-(propan-2-ylamino)pyridin-3-yl]-5-methyl-6,7-dihydro-5H-pyrazolo[5,1-b][1,3]oxazine-3-carboxamide], for which the EC50 in data set [1] was determined as 11 nM. Further, in “cell toxicity CC50”, the 50% cytotoxic concentration (CC50) is over 25000 nM.

Regarding `C[C@@H]1CCn2nc(-c3ccc(S(=O)(=O)N(C)C)cc3F)c(C(=O)N[C@H]3N=C(c4ccccc4)c4cccc(F)c4NC3=O)c2O1` [Example 200, (5R)-2-[4-(Dimethylsulfamoyl)-2-fluorophenyl]-N-[(3S)-9-fluoro-2-oxo-5-phenyl-1,3-dihydro-1,4-benzodiazepin-3-yl]-5-methyl-6,7-dihydro-5H-pyrazolo[5,1-b][1,3]oxazine-3-carboxamide], the EC50 in data set [1] came out at 1 nM. The CC50 in “cell toxicity CC50” is over 25000 nM.

On to `C[C@@H]1CCn2nc(-c3ccc(N4C[C@H]5C[C@@H]4CO5)nc3F)c(C(=O)N[C@H]3N=C(c4ccccc4)c4cccc(F)c4NC3=O)c2O1` (single isomer, unassigned) [Example 90], for which, in data set [1], the EC50 is 20 nM. Besides, in the data set “cell toxicity CC50”, the 50% cytotoxic concentration (CC50) is over 25000 nM.

On to `O=C(N[C@H]1N=C(c2ccccc2)c2cccc(F)c2NC1=O)c1c(-c2ccc(C3CC3)nc2)nn2c1OCCC2` [Example 18, 2-(6-Cyclopropylpyridin-3-yl)-N-[(3S)-9-fluoro-2-oxo-5-phenyl-1,3-dihydro-1,4-benzodiazepin-3-yl]-6,7-dihydro-5H-pyrazolo[5,1-b][1,3]oxazine-3-carboxamide], for which, in data set [1], the concentration for a half-maximal effect (EC50) was found to be 96 nM. The CC50 in “cell toxicity CC50” was over 25000 nM.

On to `C[C@@H]1CCn2nc(-c3ccc(S(C)(=O)=O)cc3F)c(C(=O)N[C@H]3N=C(c4ccccc4)c4cccc(F)c4NC3=O)c2O1` [Example 137, (5R)-2-(2-Fluoro-4-methylsulfonylphenyl)-N-[(3S)-9-fluoro-2-oxo-5-penyl-1,3-dihydro-1,4-benzodiazepin-3-yl]-5-methyl-6,7-dihydro-5H-pyrazolo[5,1-b][1,3]oxazine-3-carboxamide], for which, in data set [1], the EC50 was determined as 15 nM. Besides, in the data set “cell toxicity CC50”, the CC50 was over 25000 nM.

`C[C@@H]1CCn2nc(-c3cncc(Cl)c3)c(C(=O)N[C@H]3N=C(c4ccccc4)c4ccccc4NC3=O)c2O1` [Example 46, (5R)-2-(5-Chloropyridin-3-yl)-5-methyl-N-[(3S)-2-oxo-5-phenyl-1,3-dihydro-1,4-benzodiazepin-3-yl]-6,7-dihydro-5H-pyrazolo[5,1-b][1,3]oxazine-3-carboxamide]: in data set [1], the concentration giving a half-maximal response (EC50) amounted to 119 nM. The half-maximal cytotoxic concentration (CC50) in “cell toxicity CC50” was over 25000 nM.

On to `CO[C@@H]1CCN(c2ccc(-c3nn4c(c3C(=O)N[C@H]3N=C(c5ccccc5)c5cccc(F)c5NC3=O)O[C@H](C)CC4)cn2)C1` [Example 145, (5R)-N-[(3S)-9-fluoro-2-oxo-5-phenyl-1,3-dihydro-1,4-benzodiazepin-3-yl]-2-[6-[(3R)-3-methoxypyrrolidin-1-yl]pyridin-3-yl]-5-methyl-6,7-dihydro-5H-pyrazolo[5,1-b][1,3]oxazine-3-carboxamide], for which the EC50 in data set [1] turned out to be 278 nM. Moreover, the 50% cytotoxic concentration (CC50) in “cell toxicity CC50” was over 25000 nM.

Consider `O=C(N[C@H]1N=C(c2ccccc2)c2ccccc2NC1=O)c1c(-c2ccc(NC3CC3)nc2F)nn2c1OCCC2` [Example 44, 2-[6-(Cyclopropylamino)-2-fluoropyridin-3-yl]-N-[(3S)-2-oxo-5-phenyl-1,3-dihydro-1,4-benzodiazepin-3-yl]-6,7-dihydro-5H-pyrazolo[5,1-b][1,3]oxazine-3-carboxamide], for which the 50% effective concentration (EC50) in data set [1] was 55 nM. Also, in “cell toxicity CC50”, the CC50 is over 25000 nM.

In the case of `Cc1cnc(F)c(-c2nn3c(c2C(=O)N[C@H]2N=C(c4ccccc4)c4cccc(F)c4NC2=O)OCCC3)c1` [Example 43, 2-(2-Fluoro-5-methylpyridin-3-yl)-N-[(3S)-9-fluoro-2-oxo-5-phenyl-1,3-dihydro-1,4-benzodiazepin-3-yl]-6,7-dihydro-5H-pyrazolo[5,1-b][1,3]oxazine-3-carboxamide], the EC50 in data set [1] worked out at 101 nM. Also, the CC50 in “cell toxicity CC50” is over 25000 nM.

`CC1CCn2nc(-c3ccc(N4C[C@@H]5C[C@H]4CO5)nc3)c(C(=O)NC3N=C(c4ccccc4)c4cccc(F)c4NC3=O)c2O1` (stereo in doubt) [Example 87, (5S)-5-Methyl-N-[(3R)-9-fluoro-2-oxo-5-phenyl-1,3-dihydro-1,4-benzodiazepin-3-yl]-2-[6-[(1S,4S)-2-oxa-5-azabicyclo[2.2.1]heptan-5-yl]pyridin-3-yl]-6,7-dihydro-5H-pyrazolo[5,1-b][1,3]oxazine-3-carboxamide]: in data set [1], the EC50 worked out at 179 nM. Besides, the 50% cytotoxic concentration (CC50) in the data set “cell toxicity CC50” was over 25000 nM.

Regarding `O=C(N[C@H]1N=C(c2ccccc2)c2cccc(F)c2NC1=O)c1c(-c2ccccc2F)nn2c1OCC(CN1CCC(F)(F)C1)C2` (stereo partly drawn) [Example 186, 6-[(3,3-Difluoropyrrolidin-1-yl)methyl]-N-[(3S)-9-fluoro-2-oxo-5-phenyl-1,3-dihydro-1,4-benzodiazepin-3-yl]-2-(2-fluorophenyl)-6,7-dihydro-5H-pyrazolo [5,1-b][1,3]oxazine-3-carboxamide], the EC50 in data set [1] worked out at 59 nM. In addition, the cytotoxic concentration (CC50) in “cell toxicity CC50” is over 25000 nM.

For `CCN(C(=O)OC(C)(C)C)C1COc2c(C(=O)N[C@H]3N=C(c4ccccc4)c4cccc(F)c4NC3=O)c(-c3ccccc3F)nn2C1` (stereo partly drawn) [Example 108, tert-butyl N-ethyl-N-[3-[[(3S)-9-fluoro-2-oxo-5-phenyl-1,3-dihydro-1,4-benzodiazepin-3-yl]carbamoyl]-2-(2-fluorophenyl)-6,7-dihydro-5H-pyrazolo[5,1-b][1,3]oxazin-6-yl]carbamate], in data set [1], the half-maximal effective concentration (EC50) was 117 nM. Further, in “cell toxicity CC50”, the half-maximal cytotoxic concentration (CC50) was over 25000 nM.

On to `CC(C)NCc1ccc(-c2nn3c(c2C(=O)N[C@H]2N=C(c4ccccc4)c4cccc(F)c4NC2=O)O[C@H](C)CC3)c(F)c1` [Example 183, (5R)-N-[(3S)-9-fluoro-2-oxo-5-phenyl-1,3-dihydro-1,4-benzodiazepin-3-yl]-2-[2-fluoro-4-[(propan-2-ylamino)methyl]phenyl]-5-methyl-6,7-dihydro-5H-pyrazolo[5,1-b][1,3]oxazine-3-carboxamide], for which the EC50 in data set [1] was found to be 294 nM. Moreover, the CC50 in “cell toxicity CC50” is over 25000 nM.
